Reference: publication PMC8795197, “Safety and activity of WX-0593 (Iruplinalkib) in patients with ALK- or ROS1-rearranged advanced non-small cell lung cancer: a phase 1 dose-escalation and dose-expansion trial” (Signal Transduction and Targeted Therapy, 2022)
Like-named read-outs stand apart in the source and are kept apart here.

Legend:
[1] = system: 27 non-target kinases (MAP4K4 ... INSR, EGFR wild type); assay: Inhibitory study of 27 non-target kinases; type: biochemical; conditions: except for EGFR wild type
[2] = Absorption study (IV and oral gavage PK); type: in vivo, Sprague Dawley (SD) rats; conditions: for bioavailability: read-out: absolute bioavailability
[3] = system: advanced NSCLC patients with ALK or ROS1 rearrangement; assay: Phase 1 dose-escalation phase: antitumor activity (RECIST 1.1, investigators); type: in vivo, human
Description: The starting dose for WX-0593 was 30 mg, which was selected on the basis of preclinical toxicology studies (data unpublished), according to the International Conference on Harmonisation Guidance for Industry S9 Nonclinical Evaluation for Anticancer Pharmaceuticals.[30] Three patients were assigned to each dose level. In the dosing cohort of 30 mg, treatment included a single WX-0593 dose, followed by 7-day PK evaluation period, and subsequent daily oral dosing for continuous 21 days. In other dosing cohorts, WX-0593 was administered orally as a single dose in the 4-day PK run-in period, followed by dosing once per day in continuous 21-day cycles. The DLT observation period was the first cycle of WX-0593 treatment (the single-dose period and 21 days of multiple-dose period). Patients performed imaging evaluation at baseline, with computed tomography or magnetic resonance imaging of the chest, abdomen, pelvis, and brain. In the dose-escalation phase, the first efficacy evaluation was done after 3-week continuous administration of WX-0593 and every 6 weeks thereafter. […] If responses (CR or PR) were observed, repeat assessments were required to confirm the responses 4 weeks after the initial evaluation. […] AEs were assessed in all patients throughout this study and graded per the National Cancer Institute Common Terminology Criteria for Adverse Events version 4.03. In the dose-escalation phase, the primary endpoints were MTD, DLT, and safety assessed by investigators and the subsequent recommended dose of WX-0593. Safety parameters included TEAEs, SAEs, and TRAEs. The key secondary endpoints were PK parameters and preliminary antitumor activity of WX-0593. ORR was defined as the proportion of patients who had best overall response, including CR or PR. PFS was calculated from the date of the first dose of WX-0593 to the date of documented disease progression or death (whichever occurred first). DCR was defined as the proportion of patients who had best overall response, including CR, PR, or SD, with a duration of at least 12 weeks. TTP was calculated from the date when the first dose of WX-0593 was given to first documented disease progression. […] OS was calculated from the date when the first dose of WX-0593 was administered to the date of death from any cause. Safety analysis was performed in the SS, which was comprised of all patients treated with one dose of WX-0593 and with safety data recorded. Efficacy analysis was performed in the FAS, which was defined as all patients treated with at least one dose of WX-0593. The PK analysis set included all patients treated with at least one dose of WX-0593 and with at least one evaluable PK sample. […] Descriptive statistics were carried out to summarize patients’ baseline characteristics and safety. […] All time-to-event data (PFS, TTP, DOR, and OS) and their corresponding 95% CIs were estimated by Kaplan–Meier methods. PK parameter analyses were done with Phoenix WinNonlin version 8.0. All other statistical analyses were conducted using SAS version 9.4.

[4] = Excretion and mass balance after [14C]WX-0593; conditions: 0-168 hours
op-kappa = op-kappa (Homo sapiens, UniProt P41145); assay: GPCR antagonist screening assay; type: cell-based
Chain of op-kappa (P41145 whole entry): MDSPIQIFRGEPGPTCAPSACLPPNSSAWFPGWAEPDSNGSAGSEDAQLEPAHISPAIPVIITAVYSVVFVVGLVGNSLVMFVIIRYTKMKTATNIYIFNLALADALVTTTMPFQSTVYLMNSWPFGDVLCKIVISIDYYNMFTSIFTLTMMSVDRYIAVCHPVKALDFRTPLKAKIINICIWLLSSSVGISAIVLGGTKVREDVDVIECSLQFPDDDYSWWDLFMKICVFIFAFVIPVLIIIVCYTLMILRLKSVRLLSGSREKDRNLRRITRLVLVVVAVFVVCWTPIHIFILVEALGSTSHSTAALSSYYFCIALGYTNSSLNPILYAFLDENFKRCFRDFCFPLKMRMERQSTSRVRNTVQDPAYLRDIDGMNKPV

[5] = General pharmacology: cardiovascular system; type: in vivo, monkeys
Description: […]. Therefore, WX-0593 has a low risk of cardiotoxicity. There were no effects on the CNS and respiratory system in rats at doses of 3, 10, and 30 mg/kg. However, WX-0593 10 and 30 mg/kg may result in benign respiratory rate and decreases in minute ventilation in female rats. There were no effects on the cardiovascular system, blood pressure, ECG parameters or waveforms in monkeys at doses of 5, 10, and 25 mg/kg; 10 and 25 mg/kg may result in mild decreases in heart rate (within the normal range) and PR prolongation and QTc shortening associated with bradycardia within the normal range (no statistical difference when compared to the control arm). No cardiovascular system adverse reactions related to the test product were found. The human equivalent dose (using 60 kg) is 3636 mg/person in CNS, 3636 mg/person in male respiratory system and 363.6 mg/person in female respiratory system, and 607 mg/person in cardiovascular system.

**Q.** For `COc1cc(N2CCC3(CCN(C)CC3)CC2)ccc1Nc1ncc(Cl)c(Nc2ccccc2P(C)(C)=O)n1` [WX-0593], which “inhibitory activity against non-target kinases” value [1] is on record?
**A.** no significant inhibitory activity

**Q.** What about the Tmax ([2]; both sexes, Sprague-Dawley, rat, plasma, oral gavage 2–24 mg/kg) of the same compound?
**A.** 2.08 to 2.75 h

**Q.** What about the half-life ([2]; both sexes, Sprague-Dawley, rat, plasma, oral gavage 2–24 mg/kg, read-out: plasma terminal half-life) of the same compound?
**A.** 3.14 to 3.7 h

**Q.** What about the AUC(0-inf) ([2]; both sexes, Sprague-Dawley, rat, plasma, single IV 2 mg/kg) of the same compound?
**A.** 1560 ± 348 ng·h/mL

**Q.** What about the Vd ([2]; both sexes, Sprague-Dawley, rat, plasma, single IV 2 mg/kg, read-out: apparent volume of distribution (Vdss)) of the same compound?
**A.** 5.23 ± 0.942 L/kg

**Q.** What about the MRT inf ([2]; both sexes, Sprague-Dawley, rat, plasma, single IV 2 mg/kg, read-out: mean residence time (MRT0-inf)) of the same compound?
**A.** 3.96 ± 0.355 h

**Q.** What about the clearance ([2]; both sexes, Sprague-Dawley, rat, plasma, single IV 2 mg/kg, read-out: plasma clearance (CL)) of the same compound?
**A.** 22.2 ± 4.67 mL/min/kg

**Q.** And the half-life ([2]; both sexes, Sprague-Dawley, rat, plasma, single IV 2 mg/kg, read-out: plasma elimination half-life T1/2 (converted))?
**A.** 3.58 ± 0.652 h

**Q.** What about the bioavailability ([2]; both sexes, Sprague-Dawley, rat, plasma, single oral gavage 2 mg/kg) of the same compound?
**A.** 36.9%

**Q.** And the bioavailability ([2]; both sexes, Sprague-Dawley, rat, plasma, single oral gavage 24 mg/kg)?
**A.** 69.6%

**Q.** What about the drug accumulation ([2]; oral 8 mg/kg, 7 consecutive days) of the same compound?
**A.** no significant drug accumulation

**Q.** And the “CL as % of hepatic blood flow in rats” value ([2]; single IV 2 mg/kg)?
**A.** 40.3%

**Q.** What about the absolute bioavailability ([2]; single oral gavage 8 mg/kg) of the same compound?
**A.** 64.7%

**Q.** What about the “ORR (n/N, 95%CI)” value ([3]; ALK TKI naive, dose: 30, 60, 90, 120, 180, 240, 300 mg, 30 mg) of the same compound?
**A.** 66.7% (2/3, 9.4-99.2%)

**Q.** What about the “ORR (n/N, 95%CI)” value ([3]; ALK TKI naive, dose: 30, 60, 90, 120, 180, 240, 300 mg, 90 mg) of the same compound?
**A.** 50.0% (1/2, 1.3-98.7%)

**Q.** And the “ORR (n/N, 95%CI)” value ([3]; ALK TKI naive, dose: 30, 60, 90, 120, 180, 240, 300 mg, 120 mg)?
**A.** 75.0% (6/8, 34.9-96.8%)

**Q.** And the “ORR (n/N, 95%CI)” value ([3]; ALK TKI naive, dose: 30, 60, 90, 120, 180, 240, 300 mg, 180 mg)?
**A.** 83.3% (5/6, 35.9-99.6%)

**Q.** What about the “ORR (n/N, 95%CI)” value ([3]; ALK TKI naive, dose: 30, 60, 90, 120, 180, 240, 300 mg, 240 mg) of the same compound?
**A.** 60.0% (3/5, 14.7-94.7%)

**Q.** What about the “ORR (n/N, 95%CI)” value ([3]; ALK TKI naive, dose: 30, 60, 90, 120, 180, 240, 300 mg, 300 mg) of the same compound?
**A.** 100.0% (1/1, 2.5-100.0%)

**Q.** And the DCR ([3]; ALK-rearranged patients)?
**A.** 89.1%

**Q.** And the “ORR (n/N, 95%CI)” value ([3]; ALK-rearranged patients, total)?
**A.** 63.0%

**Q.** What about the “ORR (n/N, 95%CI)” value ([3]; ALK-rearranged, ALK TKI naive, dose: 30, 60, 90, 120, 180, 240, 300 mg, 30 mg) of the same compound?
**A.** 100% (2/2, 15.8-100%)

**Q.** What about the “ORR (n/N, 95%CI)” value ([3]; ALK-rearranged, ALK TKI naive, dose: 30, 60, 90, 120, 180, 240, 300 mg, 60 mg) of the same compound?
**A.** 66.7% (2/3, 9.4-99.2%)

**Q.** And the “ORR (n/N, 95%CI)” value ([3]; ALK-rearranged, ALK TKI naive, dose: 30, 60, 90, 120, 180, 240, 300 mg, 120 mg)?
**A.** 85.7% (6/7, 42.1-99.6%)

**Q.** What about the “ORR (n/N, 95%CI)” value ([3]; ALK-rearranged, ALK TKI naive, dose: 30, 60, 90, 120, 180, 240, 300 mg, 180 mg) of the same compound?
**A.** 75.0% (3/4, 19.4-99.4%)

**Q.** What about the “ORR (n/N, 95%CI)” value ([3]; ALK-rearranged, ALK TKI naive, dose: 30, 60, 90, 120, 180, 240, 300 mg, 300 mg) of the same compound?
**A.** 100% (1/1, 2.5-100%)

**Q.** What about the “ORR (n/N, 95%CI)” value ([3]; ALK-rearranged, crizotinib and other ALK TKIs, dose: 30, 60, 90, 120, 180, 240, 300 mg, 120 mg) of the same compound?
**A.** 100% (1/1, 2.5-100%)

**Q.** What about the “ORR (n/N, 95%CI)” value ([3]; ALK-rearranged, crizotinib and other ALK TKIs, total) of the same compound?
**A.** 100% (3/3, 29.2- 100%)

**Q.** What about the “ORR (n/N, 95%CI)” value ([3]; ALK-rearranged, crizotinib only, total) of the same compound?
**A.** 40.0% (8/20, 19.1-63.9%)

**Q.** And the DCR ([3]; ROS1-rearranged patients)?
**A.** 80.0%

**Q.** And the “ORR (n/N, 95%CI)” value ([3]; ROS1-rearranged, crizotinib and other ALK TKIs, dose: 30, 60, 90, 120, 180, 240, 300 mg, 90 mg)?
**A.** 0% (0/1, 0-97.5%)

**Q.** And the “ORR (n/N, 95%CI)” value ([3]; ROS1-rearranged, crizotinib and other ALK TKIs, total)?
**A.** 0% (0/2, 0-84.2%)

**Q.** And the “ORR (n/N, 95%CI)” value ([3]; ROS1-rearranged, crizotinib only, dose: 30, 60, 90, 120, 180, 240, 300 mg, 90 mg)?
**A.** 0% (0/1, 0-97.5%)

**Q.** And the “ORR (n/N, 95%CI)” value ([3]; ROS1-rearranged, crizotinib only, total)?
**A.** 0% (0/3, 0-70.8%)

**Q.** What about the “median PFS” value ([3]; ROS1 rearrangement, crizotinib-naive (n = 7)) of the same compound?
**A.** 3.65 months

**Q.** What about the “ORR (n/N, 95%CI)” value ([3]; baseline CNS metastasis, total) of the same compound?
**A.** 9.1% (2/22, 1.1-29.2%)

**Q.** What about the “ORR (n/N, 95%CI)” value ([3]; baseline measurable CNS metastasis, total) of the same compound?
**A.** 33.3% (2/6,4.3-77.7%)

**Q.** And the “ORR (n/N, 95%CI)” value ([3]; prior crizotinib and other ALK TKI, dose: 30, 60, 90, 120, 180, 240, 300 mg, 120 mg)?
**A.** 100% (1/1, 2.5-100%)

**Q.** What about the “ORR (n/N, 95%CI)” value ([3]; prior crizotinib and other ALK TKI, total) of the same compound?
**A.** 100% (3/3, 29.2-100%)

**Q.** And the “DOR, median (95% CI)” value ([3]; total (n=54))?
**A.** 10.87 (10.87, NR) mo

**Q.** What about the “PFS, median (95% CI)” value ([3]; total (n=54)) of the same compound?
**A.** 11.89 (5.03, 11.89) mo

**Q.** And the “TTP, median (95% CI)” value ([3]; total (n=54))?
**A.** 11.89 (6.44, 11.89) mo

**Q.** And the “dose excreted in feces” value [4]?
**A.** 85.84%

**Q.** And the “dose excreted in urine” value [4]?
**A.** 9.36%

**Q.** What about the “dose in cage rinses and washes” value [4] of the same compound?
**A.** 1.51%

**Q.** And the “mean radioactivity recovery rate” value ([4]; single oral [14C]WX-0593 8 mg/kg)?
**A.** 96.71%

**Q.** And the IC50 (op-kappa)?
**A.** > 10 µM

**Q.** What about the “effects on cardiovascular system, blood pressure, ECG parameters or waveforms” value ([5]; 5, 10 and 25 mg/kg) of the same compound?
**A.** no effects

**Q.** And the “human equivalent dose, cardiovascular system” value ([5]; using 60 kg)?
**A.** 607 mg/person
